# Assay results taken from patent US20030162834A1, “Natural physiologically active material effective on fish diseases and fish food containing the material” (priority 1998, published 2003).
# Legend:
# [1] = tested on: Heterobothrium okamotoi; test: Trial 1: in vitro immersion of oncomiracidia and gill-attached larvae in fatty acid seawater solutions; format: cell-based; settings: 1 mM in seawater, 20 degrees centigrade
# Description: (§1) Fatty acids having carbon number C2, C4 and C6-C10 were each dissolved in seawater at 1 mM concentration, and oncomiracidia of Heterobothrium okamotoi and larvae attaching to the gill were immersed in the seawater solutions. After 2 hours from the start of immersion, the efficacy of the fatty acids was investigated by counting the number of dead oncomiracidia and the number of larvae dropping down from the gill. More than 30 individuals of parasites were transferred to each group.
# (§2) For any of the groups, the trial was made under condition of 20 degrees centigrade.
# [2] = tested on: blood flukes (Paradeontacylix); test: Trial 5: oral octanoic acid, field trial on amberjack; format: in vivo; settings: 8 g octanoic acid per 1 kg pellets, 9 days
# Description: (§3) Fish tested: Amberjack weighing approximately 117 g in average.
# (§4) Trial groups: Two groups, i.e., an octanoic-acid added group in which fish were fed diets added with octanoic acid, and a control group in which fish were fed diets not added with octanoic acid. The feeding rate was 3% of fish weight/day for each group.
# (§5) Trial diets: The diets added with octanoic acid were prepared by spraying 8 g of octanoic acid to 1 kg of commercially available pellets for amberjack. The control group fish were fed the commercially available pellets for amberjack.
# (§6) Trial: The trial was conducted using off-shore net pens of 10×10×9 m placed in the field sea. Each 15000 pieces of fish for each group were treated with a parasiticide containing commercially available hydrogen peroxide as a main ingredient, and then put in each net pen. At this time, it was confirmed that Heteraxine heterocerca parasitizing to the gill and Benedenia seriolae parasitizing on the body surface were eliminated, by investigating 20 pieces of fish for each group. It was also simultaneously confirmed that blood flukes (Pradeontacylix) were present in the fish, by investigating the presence of eggs in the gill filaments. Then, bleeding was continued for 9 days while feeding the trial diets. The water temperature during the trial period was in the range of 18.5-20.0 degrees centigrade.
# (§7) Evaluation was made by sampling 20 pieces of fish from each group after 9 days from the start of the bleeding, and counting and comparing the number of Heteraxine heterocerca in the gill of each sampled fish, the number of Benedenia seriolae on the body surface, and the number of eggs of blood flukes (Paradeontacylix) in the gill filaments.
# [3] = tested on: Benedenia seriolae; test: as above; format: in vivo; settings: 8 g octanoic acid per 1 kg pellets, 9 days
# Description: as §3, §4, §5, §6, §7
# [4] = tested on: Heteraxine heterocerca; test: as above; format: in vivo; settings: 8 g octanoic acid per 1 kg pellets, 9 days
# Description: as §3, §4, §5, §6, §7
# [5] = Growth trial: tiger puffer fed basal diet supplemented with 0.5% octanoic acid; format: in vivo
# Description: The inventors conducted trials using tiger puffer to test whether the octanoic acid adversely affects growth of fish. Two trial groups were prepared; i.e., one group fed the basal diet supplemented with 0.5% of octanoic acid (5 g of octanoic acid added for 1 kg of diet), and the other group fed the basal diet alone. Trial conditions were that 50 pieces of tiger puffer for each group were put in a 1-t water tank, and the puffs were fed twice per day, i.e., in the morning and evening. A bleeding trial period was 45 days and the water temperature was 25+−1 degrees centigrade during the trial period.
# [6] = tested on: Cryptocaryon irritans; test: Trial 1: in vitro immersion of theronts in fatty acid seawater solutions; format: cell-based; settings: 0.5 mM in seawater, 20 degrees centigrade; listed as C8
# Description: (§8) For Cryptocaryon irritans, fatty acids having carbon number C2, C4 and C6-C10 were each dissolved in seawater at 0.5 mM concentration, and theronts of Cryptocaryon irritans were immersed in the seawater solutions. After 1 hour from the start of immersion, the efficacy of the fatty acids was investigated by counting the number of dead theronts. More than 200 individuals of parasites were transferred to each group.
# as §2
# [7] = tested on: Cryptocaryon irritans; test: Trial 4: oral octanoic acid, Cryptocaryon irritans challenge trial on red sea bream; format: in vivo; settings: 5 g octanoic acid per 1 kg pellets
# Description: Fish tested: Red sea bream weighing approximately 9.8 g in average.
# as §4
# Trial diets: The diets added with octanoic acid were prepared by spraying 5 g of octanoic acid to 1 kg of commercially available pellets for red sea bream. The control group fish were fed the commercially available pellets for red sea bream.
# Challenge trial: Each 30 pieces of fish from among a shoal of fish, in which no diseases such as Cryptocaryon irritans infection were found, were put in a 100-liter water tank, and were fed the respective trial diets. After 5 days, approximately 2000 individuals of ([…] theronts) of Cryptocaryon irritans were put in each water tank to infect the fish while water flow was stopped for 1 hour. Then, bleeding was continued for 15 days. During the trial period, the water temperature was in the range of 22.5-23.2 degrees centigrade and the water was exchanged at 20 cycles/day.
# Evaluation was made by sampling 5 pieces of fish from each group after 3 days from the start of the challenge, comparing the number of parasites attaching to the gill and the body surface of each infected fish, and comparing mortality of the fish during the trial period between the respective groups.
# [8] = tested on: Cryptocaryon irritans; test: Trial 8: octanoic acid versus its monoglyceride and triglyceride, oral, red sea bream; format: in vivo; settings: diet amount equal to 17.5 mM octanoic acid residues (2.5 g acid, 3.8 g monoglyceride, 2.7 g triglyceride per kg)
# From the text: Fish tested: Red sea bream weighing approximately 15.8 g in average.
# Trial groups: Four groups, i.e., an octanoic-acid added group in which fish were fed diets added with octanoic acid, a monoglyceride added group in which fish were fed diets added with monoglyceride of octanoic acid, a triglyceride added group in which fish were fed diets added with triglyceride of octanoic acid, and a control group in which fish were fed diets added with neither octanoic acid nor glycerides. The feeding rate was 3% of fish weight/day for each group.
# Trial diets: The diets added with octanoic acid were prepared by spraying 2.5 g (17.5 mM with respect to the diet weight) of octanoic acid to 1 kg of commercially available pellets for red sea bream. […]. Specifically, the diets added with monoglyceride and triglyceride were prepared respectively by spraying 3.8 g of monoglyceride and 2.7 g of triglyceride to 1 kg of the commercially available pellets for red sea bream. The control group fish were fed the commercially available pellets for red sea bream.
# Challenge trial: Each 10 pieces of fish from among a shoal of fish, in which no diseases such as Cryptocaryon irritans infection were found, were put in a 100-liter water tank, and were fed the respective trial diets. After 5 days, approximately 2000 individuals of theronts of Cryptocaryon irritans were put into each water tank to infect the fish while water flow was stopped for 1 hour. Then, bleeding was continued for 31 days while feeding the respective trial diets. During the trial period, the water temperature was 24+−1 degrees centigrade and the water was exchanged at 20 cycles/day.
# Evaluation was made by sampling 5 pieces of fish from each group after 18 and 31 days from the start of the challenge, and comparing the number of the parasites attaching to the gill of each fish.
# [9] = tested on: parasites (Heterobothrium okamotoi, Cryptocaryon irritans); test: Trial 1: overall statements on efficacy of fatty acids against parasites; format: cell-based; settings: Trial 1 summary; C12 at a low concentration, not the same condition
# Description: as §1, §8, §2
structure (smiles),measurement,setting,value
CCCCCCCC(=O)O [octanoic acid],emergence of dead oncomiracidia,[1],emerged earliest
same,larvae dropping down from the gill (drop-down rate),[1]; 2 hours,highest drop-down rate
same,eggs of blood flukes in the gill filaments,[2],no eggs of blood flukes were observed
same,"number of Benedenia seriolae on the body surface, versus control",[3],no appreciable difference
same,"number of Heteraxine heterocerca in the gill, versus control",[4],apparently fewer
same,died fish,[5]; continued for succeeding seven months,no died fish
same,adverse effects on puffer growth,[5]; in vivo,adverse effects on the puffer growth were not found
same,content of octanoic acid in the edible muscle,[5]; in vivo,no octanoic acid was detected
same,emergence of dead theronts,[6],emerged earliest
same,parasites on gill and body surface after 3 days from the challenge,[7],no parasites were found
same,parasites at the end of the trial,[7]; 15 days,no parasites were found
same,fish mortality during the trial,"[7]; 15 days, control all dead at the 8-th day",no fish died
same,"number of parasites attaching to the gill after 18 and 31 days, versus control",[8],apparently fewer
same,efficacy against parasites,[9],most effective
